23 compounds from patent publication US20190010158A1, “ANTITUMOR EFFECT POTENTIATOR COMPRISING PYRROLOPYRIMIDINE COMPOUND” (TAIHO PHARMACEUTICAL CO., LTD, priority 2015, published 2019) can be followed below.

Test [1] has as its system tumor cell lines shown in Table 42. In words: Example 11: combined use with antimetabolite, cell growth inhibition test (IC50 ratio, CI). Type of test: cell-based. The conditions noted are these: for Comprehensive Evaluation: combined use with Reference Example Compound 55.
Test [2] concerns tumor cell lines shown in Table 26. In words: Example 3: combined use with serine-threonine kinase inhibitor, cell growth inhibition test (IC50 ratio, CI). The conditions noted are these: for Comprehensive Evaluation: combined use with Reference Example Compound 55.
Test [3] deals with human acute T lymphoblastic leukemia CCRF-CEM cell lines. In words: Cell growth inhibition 1 (CellTiter-Glo). Type of test: cell-based. The conditions noted are these: culture with test compound 72 hours.
Setting [4] is: TMD-8, IC50 of Reference Example Compound 55 : IC50 of other compound = 1:value.
Where [5] appears, read: A549, IC50 of Reference Example Compound 55 : IC50 of other compound = 1:value.

pIC50: −log10 of the molar value. Several values for one entry are separate records, joined by “and”; a condition that tells them apart may be missing. Equal values may be shown once. Read-outs that look alike come from different tables or passages of the source.

With `Sc1ncnc2nc[nH]c12` [6-Mercaptopurine, 6-mercaptopurine], the “IC50 Ratio” value in test [1] (MM.1S, IC50 of Reference Example Compound 55 : IC50 of other compound = 1:value) was found to be 169. Besides, the CI in test [1] (MM.1S, Reference Example Compound 55:other compound 1:100, at ED50) is 0.61; in test [1] (MM.1S, Reference Example Compound 55:other compound 1:300, at ED50), 0.80. Further, the “Comprehensive Evaluation” value in test [1] (MM.1S) is listed as “Moderate”.
For the compound `Nc1ccn([C@@H]2O[C@H](CO)[C@@H](O)[C@@H]2O)c(=O)n1` [Cytarabine, cytarabine], in test [1], the CI was 0.52 and 0.66; the “IC50 Ratio” value came to 48. The “Comprehensive Evaluation” value in test [1] (HCT116) is “Synergism (0.3-0.7)”.
Regarding `C[C@H](Nc1ncnc2nc[nH]c12)c1cc2cccc(Cl)c2c(=O)n1-c1ccccc1` [Duvelisib, duvelisib], the “IC50 Ratio” value in test [2] (setting [4]) was found to be 2. Further, the CI in test [2] (TMD-8, Reference Example Compound 55:other compound 1:1.2, at ED50) came out at 0.42; in test [2] (TMD-8, Reference Example Compound 55:other compound 1:3.7, at ED50), 0.43. Moreover, the “Comprehensive Evaluation” value in test [2] (TMD-8) is reported as “Synergism (0.3-0.7)”.
For the compound `CO[C@H]1C[C@@H]2CC[C@@H](C)[C@@](O)(O2)C(=O)C(=O)N2CCCC[C@H]2C(=O)O[C@H]([C@H](C)C[C@@H]2CC[C@@H](OCCO)[C@H](OC)C2)CC(=O)[C@H](C)/C=C(\C)[C@@H](O)[C@@H](OC)C(=O)[C@H](C)C[C@H](C)/C=C/C=C/C=C/1C` [Everolimus, everolimus], the “IC50 Ratio” value in test [2] (VMRC-RCW, IC50 of Reference Example Compound 55 : IC50 of other compound = 1:value) is on record as 6. Besides, the “Comprehensive Evaluation” value in test [2] (VMRC-RCW) is “Synergism (0.3-0.7)”.
Consider `O=c1[nH]cc(F)c(=O)[nH]1` [Fluorouracil, fluorouracil], for which, in test [1] (A431, IC50 of Reference Example Compound 55 : IC50 of other compound = 1:value), the “IC50 Ratio” value was found to be 0.8. The CI in test [1] (A431, Reference Example Compound 55:other compound 1:0.56, at ED50) is given as 0.44; in test [1] (A431, Reference Example Compound 55:other compound 1:1.67, at ED50), 0.20. In test [1] (A431), the “Comprehensive Evaluation” value was “Synergism (0.3-0.7)”.
On to `CC[C@H](Nc1ncnc2[nH]cnc12)c1nc2cccc(F)c2c(=O)n1-c1ccccc1` [Idelalisib, idelalisib], for which the “IC50 Ratio” value in test [2] (setting [4]) stood at 23. Also, the CI in test [2] (TMD-8, Reference Example Compound 55:other compound 1:11, at ED50) came out at 0.57; in test [2] (TMD-8, Reference Example Compound 55:other compound 1:33, at ED50), 0.64. In addition, the “Comprehensive Evaluation” value in test [2] (TMD-8) was “Synergism (0.3-0.7)”.
Turning to `NC1(c2ccc(-c3nc4ccn5c(=O)[nH]nc5c4cc3-c3ccccc3)cc2)CCC1` [MK2206], the “IC50 Ratio” value in test [2] (setting [5]) stood at 5. Further, the CI is listed as 0.31 in test [2] (A549, Reference Example Compound 55:other compound 1:3, at ED50) and 0.35 in test [2] (A549, Reference Example Compound 55:other compound 1:9, at ED50). For the same compound, the “Comprehensive Evaluation” value in test [2] (A549) is on record as “Synergism (0.3-0.7)”.
Turning to `CO[C@H]1C[C@@H]2CC[C@@H](C)[C@@](O)(O2)C(=O)C(=O)N2CCCC[C@H]2C(=O)O[C@H]([C@H](C)C[C@@H]2CC[C@@H](O)[C@H](OC)C2)CC(=O)[C@H](C)/C=C(\C)[C@@H](O)[C@@H](OC)C(=O)[C@H](C)C[C@H](C)/C=C/C=C/C=C/1C` [Rapamycin, rapamycin], the “IC50 Ratio” value in test [2] (setting [5]) worked out at 0.1. In test [2] (A549), the “Comprehensive Evaluation” value is “Synergism (0.3-0.7)”.
Compound `CCCOc1cccc(F)c1C#Cc1cn([C@@H]2O[C@H](CNS(N)(=O)=O)[C@@H](O)[C@H]2O)c2ncnc(N)c12` [Reference Example 60, 4-Amino-7-[(2R,3R,4S,5R)-3,4-dihydroxy-5-[(sulfamoylamino)methyl]tetrahydrofuran-2-yl]-5-[2-(2-fluoro-6-propoxy-phenyl)ethynyl]pyrrolo[2,3-d]pyrimidine] had a pIC50 in test [3] of 8.29.
`CCSc1cccc(F)c1C#Cc1cn([C@@H]2O[C@H](CNS(N)(=O)=O)[C@@H](O)[C@H]2O)c2ncnc(N)c12` [Reference Example 66, 4-Amino-7-[(2R,3R,4S,5R)-3,4-dihydroxy-5-[(sulfamoylamino)methyl]tetrahydrofuran-2-yl]-5-[2-(2-ethylsulfanyl-6-fluoro-phenyl)ethynyl]pyrrolo[2,3-d]pyrimidine] gave a pIC50 in test [3] of 8.37.
On the same count and under the same terms, in the case of `CCS(=O)(=O)c1cc(N2CCCC2)cc(F)c1C#Cc1cn([C@@H]2O[C@H](CNS(N)(=O)=O)[C@@H](O)[C@H]2O)c2ncnc(N)c12` [Reference Example 70, 4-Amino-7-[(2R,3R,4S,5R)-3,4-dihydroxy-5-[(sulfamoylamino)methyl]tetrahydrofuran-2-yl]-5-[2-(2-ethylsulfonyl-6-fluoro-4-pyrrolidin-1-yl-phenyl)ethynyl]pyrrolo[2,3-d]pyrimidine] it was 7.82; in that of `COc1cncc(F)c1C#Cc1cn([C@@H]2O[C@H](CNS(N)(=O)=O)[C@@H](O)[C@H]2O)c2ncnc(N)c12` [Reference Example 71, 4-Amino-7-[(2R,3R,4S,5R)-3,4-dihydroxy-5-[(sulfamoylamino)methyl]tetrahydrofuran-2-yl]-5-[2-(3-fluoro-5-methoxy-4-pyridyl)ethynyl]pyrrolo[2,3-d]pyrimidine], 7.35; in that of `CCS(=O)(=O)c1cc(N2CC[C@@H](O)C2)cc(F)c1C#Cc1cn([C@@H]2O[C@H](CNS(N)(=O)=O)[C@@H](O)[C@H]2O)c2ncnc(N)c12` [Reference Example 72, 4-Amino-7-[(2R,3R,4S,5R)-3,4-dihydroxy-5-[(sulfamoylamino)methyl]tetrahydrofuran-2-yl]-5-[2-[2-ethylsulfonyl-6-fluoro-4-[(3R)-3-hydroxypyrrolidin-1-yl]phenyl]ethynyl]pyrrolo[2,3-d]pyrimidine], 7.06.
Turning to `Nc1ncnc2c1c(C#Cc1c(F)cccc1Cl)cn2[C@@H]1O[C@H](CNS(N)(=O)=O)[C@@H](O)[C@H]1O` [Reference Example 73, 4-Amino-5-[2-(2-chloro-6-fluoro-phenyl)ethynyl]-7-[(2R,3R,4S,5R)-3,4-dihydroxy-5-[(sulfamoylamino)methyl]tetrahydrofuran-2-yl]pyrrolo[2,3-d]pyrimidine], in test [3], the negative-log IC50 (pIC50) was 7.15.
In test [3], `Nc1ncnc2c1c(C#Cc1cccc3c1S(=O)(=O)CCC3)cn2[C@@H]1O[C@H](CNS(N)(=O)=O)[C@@H](O)[C@H]1O` [Reference Example 83, 4-Amino-7-[(2R,3R,4S,5R)-3,4-dihydroxy-5-[(sulfamoylamino)methyl]tetrahydrofuran-2-yl]-5-[2-(1,1-dioxo-3,4-dihydro-2H-thiochromen-8-yl)ethynyl]pyrrolo[2,3-d]pyrimidine] showed a pIC50 of 7.25.
`Nc1ncnc2c1c(C#Cc1c(F)cccc1S(N)(=O)=O)cn2[C@@H]1O[C@H](CNS(N)(=O)=O)[C@@H](O)[C@H]1O` [Reference Example 84, 2-[2-[4-Amino-7-[(2R,3R,4S,5R)-3,4-dihydroxy-5-[(sulfamoylamino)methyl]tetrahydrofuran-2-yl]pyrrolo[2,3-d]pyrimidin-5-yl]ethynyl]-3-fluoro-benzenesulfonamide]: the negative-log IC50 (pIC50) in test [3] is 6.64.
The same measure, in the same setting: the value for `N#Cc1cccc(F)c1C#Cc1cn([C@@H]2O[C@H](CNS(N)(=O)=O)[C@@H](O)[C@H]2O)c2ncnc(N)c12` [Reference Example 85, 4-Amino-5-[2-(2-cyano-6-fluoro-phenyl)ethynyl]-7-[(2R,3R,4S,5R)-3,4-dihydroxy-5-[(sulfamoylamino)methyl]tetrahydrofuran-2-yl]pyrrolo[2,3-d]pyrimidine] was 7.42; that for `Nc1ncnc2c1c(C#Cc1c(F)cccc1OCC1CC1)cn2[C@@H]1O[C@H](CNS(N)(=O)=O)[C@@H](O)[C@H]1O` [Reference Example 86, 4-Amino-5-[2-[2-(cyclopropylmethoxy)-6-fluoro-phenyl]ethynyl]-7-[(2R,3R,4S,5R)-3,4-dihydroxy-5-[(sulfamoylamino)methyl]tetrahydrofuran-2-yl]pyrrolo[2,3-d]pyrimidine] was 8.26.
Consider `CSc1cccc(F)c1C#Cc1cn([C@@H]2C[C@H](CNS(N)(=O)=O)[C@@H](O)[C@H]2O)c2ncnc(N)c12` [Reference Example 98, 4-Amino-7-[(1R,2S,3R,4R)-2,3-dihydroxy-4-[(sulfamoylamino)methyl]cyclopentyl]-5-[2-(2-fluoro-6-methylsulfanyl-phenyl)ethynyl]pyrrolo[2,3-d]pyrimidine], for which the negative-log IC50 (pIC50) in test [3] is 8.14.
On the same count and under the same terms, the value for `Nc1ncnc2c1c(C#Cc1c(F)cc(N3CC[C@@H](O)C3)cc1F)cn2[C@@H]1C[C@H](CNS(N)(=O)=O)[C@@H](O)[C@H]1O` [Reference Example 120, 4-Amino-5-[2-[2,6-difluoro-4-[(3R)-3-hydroxypyrrolidin-1-yl]phenyl]ethynyl]-7-[(1R,2S,3R,4R)-2,3-dihydroxy-4-[(sulfamoylamino)methyl]cyclopentyl]pyrrolo[2,3-d]pyrimidine] was 7.46; that for `Nc1ncnc2c1c(C#Cc1cccc3c1S(=O)(=O)CCC3)cn2[C@@H]1C[C@H](CNS(N)(=O)=O)[C@@H](O)[C@H]1O` [Reference Example 123, 4-Amino-7-[(1R,2S,3R,4R)-2,3-dihydroxy-4-[(sulfamoylamino)methyl]cyclopentyl]-5-[2-(1,1-dioxo-3,4-dihydro-2H-thiochromen-8-yl)ethynyl]pyrrolo[2,3-d]pyrimidine] was 7.01.
With `CC[C@@H]1C(=O)N(C)c2cnc(Nc3ccc(C(=O)N[C@H]4CC[C@H](N5CCN(CC6CC6)CC5)CC4)cc3OC)nc2N1C(C)C` [Volasertib, volasertib], the “IC50 Ratio” value in test [2] (HL-60, IC50 of Reference Example Compound 55 : IC50 of other compound = 1:value) is recorded as 14. For the same compound, the CI in test [2] (HL-60, Reference Example Compound 55:other compound 1:11, at ED50) is on record as 0.95; in test [2] (HL-60, Reference Example Compound 55:other compound 1:33, at ED50), 0.82. The “Comprehensive Evaluation” value in test [2] (HL-60) is “Additive (0.9-1.10)”.
As for AZD5363, in test [2], the CI was 0.33 and 0.38; the “IC50 Ratio” value was determined as 67.
